These results are taken from patent publication US20090170749A1, “Novel Compounds Which Interact With PEA-15” (Institut National De La Sante Et De La Recherche Medicale …, priority 2005, published 2009).

Entries after “also recorded” stand apart in the source; their conditions may differ.

The target in one assay is T1, GFP-PEA-15 (Mus musculus, UniProt Q62048).
T1 construct: expressed in transfected cells
Kind of assay: Detection of the interaction of 6D6-1 with GFP-PEA-15 by FRET in 3T3-GFP-PEA-15 cells. Type of assay: cell-based. The following applies: 6D6-1 tested at 10^-4 M and 10^-5 M, 60 minutes, excitation 465 nm. On the procedure:
The cell line 3T3 expressing the GFP-PEA-15 (3T3-GFP-PEA-15 cell) was obtained as described by FORMSTECHER et al. (Dev. Cell., 2001, 1:239) by transfection of NIH3T3 cells with a EGFP-PEA-15 plasmide obtained as described by KITSBERG et al. (J. Neurosci., 1999, 19: 8244).
Clones resistant to the neomycin (G418) were selected and cultivated in a DMEM (Roche) medium supplemented with 10% of foetal calf serum, 2 mM of glutamine, penicillin (5 IU/ml) and streptomycin ([…]).
The GFP-PEA-15 protein expression was checked by the measurement of the fluorescence of the living cells and a WESTERN transfer analysis with an anti-GFP antibody (Roche, cat. No. 1,814,460 mixture of two monoclonal antibodies obtained from a mouse (clone 7.1 and clone 13.1)) and an anti-PEA-15 (rabbit polyclonal antibody, Sharif et al., Neuroscience, 126: 263, 2004).
The 3T3-GFP-PEA-15 cells are then cultivated up to confluence in a HAM-F12 medium comprising penicillin (10 000 U/ml)/streptomycin (10 000 μg/ml), 7% of foetal calf serum (BIOWHITTAKER) before the fluorescence resonance energy transfer (FRET) experiences. […]
After adding the 6D6-1 compound, the cells are gently agitated (100 rpm) for 60 minutes before the fluorescence read-out, in order to enable the compounds to diffuse and enter into the cells. […]
The GFP protein excited at 465 nm emits a fluorescence signal at 535 nm.

In another assay the test system is ERK. Kind of assay: Effect of 6D6-1 on ERK and PEA-15 subcellular location in primary astrocyte cultures (confocal microscopy). The following applies: primary astrocytes, 24 hours without serum; 50 μM 6D6-1 for 2 hours 15 minutes. Type of assay: cell-based, mouse. On the procedure: Primary astrocyte cultures were prepared from cortex and striatum of mouse embryos (day 16) as described by ARAUJO et al. (J. Biol. Chem., 1993, 268: 5911).
The primary astrocyte cultures were maintained for 24 hours in the absence of serum, a condition known to induce a mainly cytoplasmic location of ERK.
The cells were then treated or not with 50 μM of the 6D6-1 compound for 2 hours 15 minutes.
The subcellular location of ERK and PEA-15 was observed by confocal microscopy after labeling the cells with fluorescent antibodies.
The cells were washed twice with PBS (Dulbecco phosphate saline buffer, without CaCl2 nor MgCl2, Sigma), and fixed with 4% paraformaldehyde in PBS (pH 7.5), for 15 minutes, then washed twice with PBS comprising 0.1 M of glycine, at ambient temperature.
Then, the cells were incubated for 5 minutes in PBS containing 0.2% of X-100 triton.
The non-specific sites were blocked with PBS containing 10% of normal goat serum (NGS) for one hour at ambient temperature.
Then the cells were incubated overnight at 4° C. with PEA-15 specific antibodies (rabbit polyclonal antibody, Sharif et al., Neuroscience, 2004) or ERK specific antibodies (rabbit polyclonal antibody, Santa Cruz K-23 (ref. Sc-94)), diluted in PBS containing 1.5% of NGS. […]

Assay [1] addresses T2, GST-PEA-15 fusion protein (Mus musculus, UniProt Q62048).
T2 construct: made in house
Kind of assay: 6D6-1/PEA-15 protein interaction: fluorescence of glutathione Sepharose beads carrying GST-PEA-15. Type of assay: binding. On the procedure:
The GST-PEA-15 fusion protein was obtained according to the protocol described by Kitsberg et al. (J. Neurosci, 1999, 19: 8244).
The GST-PEA-15 fusion proteins were recovered after lysis of bacteria and were incubated together with a Sepharose bead covered with glutathione.
The beads thus obtained are incubated in the presence of 1 or 5 μM of 6D6-1, in a 20 mM Tris-HCl, pH 7.4; 100 mM NaCl; 1 mM MgCl2; 1% Triton X-100 buffer).
After a series of three washings, the beads are dried on a cellulose membrane and the fluorescence is quantified by means of a phosphoimager (Biorad), by measuring the fluorescence of the lissamine with excitation at 543 nm and measurement of the emission at 590 nm.
The results are the average of three independent experiences.

T2 sequence (Q62048 whole entry, the tested form may be a part): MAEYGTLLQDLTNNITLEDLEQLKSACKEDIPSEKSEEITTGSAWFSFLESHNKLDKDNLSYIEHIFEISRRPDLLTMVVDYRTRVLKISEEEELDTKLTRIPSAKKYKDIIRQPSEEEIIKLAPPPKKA
T1 sequence (Q62048 whole entry): as the sequence (Q62048 whole entry, the tested form may be a part) above

On to “1-methyl-piperidin-4-His(Bzl)-Lys(o-Lissamine)-1-methyl-1H-imidazol-4-yl)-acetamide [Compound 6D6-1]”, for which, on GFP-PEA-15, the “fluorescence resonance energy transfer (FRET) on binding to GFP-PEA-15, fluorescence signal at 590 nm” value is given as “enables a fluorescence resonance energy transfer (FRET)”. Besides, in the assay with ERK, the “subcellular location of ERK” value is “relocation of the ERK protein in the core; also recorded: relocation of ERK in the nucleus” and the “subcellular location of PEA-15” value is listed as “remains cytoplasmic”. The “average intensity of fluorescence of beads carrying GST-PEA-15” value in assay [1] (1 or 5 μM 6D6-1, excitation 543 nm, emission 590 nm, average of three independent experiences) was “depends upon the concentration of the compound”. The “interaction with PEA-15 protein” value in assay [1] (general statement of the inventors' observation) is “able to interact in a specific way with a PEA-15 protein”.
